Experiments:
[1] = target: hGYS1 enzyme (recombinant hGYS1/GN1 protein) (Homo sapiens (Human), UniProt P13807); assay: GYS1 coupled enzyme assay (PK/LDH); type: biochemical; conditions: hGYS1/GN1 50 nM, UDP-Glucose 0.8 mM, G6P 1 mM; geometric mean of at least 2 runs
[2] = target: hGYS2 enzyme (recombinant hGYS2/GN1 protein) (Homo sapiens (Human), UniProt P54840); assay: GYS2 coupled enzyme assay (PK/LDH); type: biochemical; conditions: geometric mean of at least 2 assay runs on separate days, read-out: Avg_IC50
From the text: The GYS2 coupled enzyme assay is a kinetic biochemical assay that indirectly quantifies the rate of glycogen synthesis by coupling the conversion of GYS2 substrate UDP-glucose into UDP with downstream enzymatic reactions. UDP is released from UDP-glucose as glucose monomers are linked into the growing glycogen strand by GYS2. The coupled assay then proceeds with pyruvate kinase utilizing UDP and phospho(enol)pyruvate (PEP) to form pyruvate. Lactate dehydrogenase then converts pyruvate and NADH into lactate and NAD+. Oxidation of NADH to NAD+ can be measured continuously with a plate reader by quantifying the decrease in NADH absorbance at 340 nm over time.
Compounds that inhibit the hGYS2 enzyme and, subsequently, the downstream conversion of NADH to NAD+, were tested using assay ready plates (black, clear bottom 384 well plates) in a final DMSO reaction volume of 2.5% DMSO. The Assay Buffer contained 50 mM Tris pH 7.5, 2 mM MgCl2, and 100 mM KCl. Fresh stocks of BSA at a final concentration of 0.02% and TCEP 1 mM were added before splitting buffer into hGYS2 buffer and substrate buffer. To the hGYS2 buffer, rabbit liver glycogen was added at a final concentration of 0.2% glycogen. Glucose-6-Phosphate was added at 2 mM, recombinant hGYS2/GN1 protein was added at 200 nM to the substrate buffer, phosphoenolpyruvate (PEP) was added at 2 mM, UDP-Glucose was added at 2 mM, NADH was added at 0.6 mM, and Pyruvate Kinase/Lactate Dehydrogenase was added at 20 units/mL. The reaction was initiated by mixing hGYS2 buffer and substrate buffer at a 1:1 ratio. Both buffers were plated using a liquid dispensing device with hGYS2 buffer plated first followed by the substrate buffer. Plates were spun briefly to eliminate air bubbles and are immediately read in continuous mode at an absorbance of 340 nm, for 10 time points in one-minute increments, for a total of 10 minutes. The slope from these 10 time points was normalized to the positive and negative control wells. The duplicate % inhibition values are then averaged and fit to a Hill equation for dose response according to the Levenberg-Marquardt algorithm with the Hill equation maximum set to 100 and the minimum set to 0.
The results are shown in Table 4 below, which reports the IC50 of each compound. Unless otherwise specified, IC50 values are reported as the geometric mean of at least 2 assay runs on separate days. As shown in the table below, the compounds of the present invention are not potent inhibitors of human GYS2. Unless otherwise specified, IC50 values are reported as the geometric mean of at least two assay runs on separate days. Each run represents the average of a technical replicate, where each compound was assayed twice in the same plate. A superscript “#” symbol in Table 4 indicates results from a single assay run.

Chain of hGYS1 enzyme (recombinant hGYS1/GN1 protein) (P13807 whole entry): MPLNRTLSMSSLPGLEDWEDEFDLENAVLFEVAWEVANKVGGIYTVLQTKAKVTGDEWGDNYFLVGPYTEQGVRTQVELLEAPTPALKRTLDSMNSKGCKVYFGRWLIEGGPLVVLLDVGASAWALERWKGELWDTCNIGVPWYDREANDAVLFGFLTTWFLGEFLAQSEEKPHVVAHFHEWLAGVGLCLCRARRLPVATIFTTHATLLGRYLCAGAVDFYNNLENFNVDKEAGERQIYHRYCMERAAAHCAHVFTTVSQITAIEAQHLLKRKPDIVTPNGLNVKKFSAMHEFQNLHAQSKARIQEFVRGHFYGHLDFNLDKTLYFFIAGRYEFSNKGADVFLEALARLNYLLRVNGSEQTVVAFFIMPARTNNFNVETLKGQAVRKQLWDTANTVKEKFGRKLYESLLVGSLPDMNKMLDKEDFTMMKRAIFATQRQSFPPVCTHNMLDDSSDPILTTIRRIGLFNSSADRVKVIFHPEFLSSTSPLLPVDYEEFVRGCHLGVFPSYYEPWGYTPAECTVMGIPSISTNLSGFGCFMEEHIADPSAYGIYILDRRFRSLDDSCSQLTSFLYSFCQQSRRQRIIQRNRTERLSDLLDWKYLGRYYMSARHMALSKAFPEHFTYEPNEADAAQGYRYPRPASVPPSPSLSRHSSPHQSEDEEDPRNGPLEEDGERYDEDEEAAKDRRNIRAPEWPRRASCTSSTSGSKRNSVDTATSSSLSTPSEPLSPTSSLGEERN
Chain of hGYS1 enzyme (recombinant hGYS1/GN1 protein) (P46976 whole entry partner): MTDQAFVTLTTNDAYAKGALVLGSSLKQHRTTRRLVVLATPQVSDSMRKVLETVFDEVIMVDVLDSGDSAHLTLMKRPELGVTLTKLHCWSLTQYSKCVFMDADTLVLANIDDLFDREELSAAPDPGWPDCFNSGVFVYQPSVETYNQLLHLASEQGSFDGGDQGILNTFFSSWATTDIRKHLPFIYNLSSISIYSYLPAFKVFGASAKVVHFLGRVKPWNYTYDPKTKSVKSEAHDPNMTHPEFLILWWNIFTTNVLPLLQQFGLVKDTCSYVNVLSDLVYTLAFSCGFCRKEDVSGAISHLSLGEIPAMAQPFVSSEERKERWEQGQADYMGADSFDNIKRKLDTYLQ
Chain of hGYS2 enzyme (recombinant hGYS2/GN1 protein) (P54840 whole entry): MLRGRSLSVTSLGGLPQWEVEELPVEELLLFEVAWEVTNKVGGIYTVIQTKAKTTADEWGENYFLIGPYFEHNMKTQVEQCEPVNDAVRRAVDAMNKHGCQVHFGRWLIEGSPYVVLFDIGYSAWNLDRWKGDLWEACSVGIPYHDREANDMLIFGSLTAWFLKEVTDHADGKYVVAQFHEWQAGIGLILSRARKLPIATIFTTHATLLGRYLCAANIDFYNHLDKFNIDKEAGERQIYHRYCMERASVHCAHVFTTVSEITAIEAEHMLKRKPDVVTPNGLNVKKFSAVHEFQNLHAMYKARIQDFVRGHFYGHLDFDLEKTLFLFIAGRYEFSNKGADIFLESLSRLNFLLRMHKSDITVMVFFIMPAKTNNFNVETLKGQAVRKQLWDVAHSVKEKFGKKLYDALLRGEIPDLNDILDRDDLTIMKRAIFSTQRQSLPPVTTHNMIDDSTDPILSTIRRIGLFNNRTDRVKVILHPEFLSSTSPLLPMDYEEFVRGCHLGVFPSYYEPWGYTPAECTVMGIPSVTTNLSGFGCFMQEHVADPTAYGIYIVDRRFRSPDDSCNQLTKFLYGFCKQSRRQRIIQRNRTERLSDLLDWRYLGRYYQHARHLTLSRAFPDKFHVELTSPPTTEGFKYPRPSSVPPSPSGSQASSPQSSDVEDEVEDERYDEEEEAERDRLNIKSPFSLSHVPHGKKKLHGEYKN
Chain of hGYS2 enzyme (recombinant hGYS2/GN1 protein) (P46976 whole entry partner): as the sequence (P46976 whole entry partner) above

| Compound | IC50 [1] | IC50 [2] |
| --- | --- | --- |
| CC(C)c1ccc([C@@H](NC(=O)[C@@H]2C[C@@H](F)CN2C(=O)Cc2ccnn2C)c2ccccc2)cc1 (stereo in doubt) [Compound 220, (2S,4RS)-4-fluoro-1-[2-(1-methyl-1H-pyrazol-5-yl)acetyl]-N-[(S)-phenyl[4-(propan-2-yl)phenyl]methyl]pyrrolidine-2-carboxamide] | 38 nM | > 100000 nM |
| CC(C)c1ccc([C@@H](NC(=O)[C@@H]2C[C@@H](F)CN2C(=O)Cn2cccn2)c2ccccc2)cc1 (stereo in doubt) [Compound 221, (2S,4RS)-4-fluoro-N-[(S)-phenyl[4-(propan-2-yl)phenyl]methyl]-1-[2-(1H-pyrazol-1-yl)acetyl]pyrrolidine-2-carboxamide] | 43 nM | > 100000 nM |
| CC(C)c1ccc([C@@H](NC(=O)[C@@H]2C[C@@H](F)CN2C(=O)Cn2ccnn2)c2ccccc2)cc1 (stereo in doubt) [Compound 222, (2RS,4R)-4-fluoro-N-[(S)-phenyl[4-(propan-2-yl)phenyl]methyl]-1-[2-(1H-1,2,3-triazol-1-yl)acetyl]pyrrolidine-2-carboxamide] | 40 nM | > 100000 nM |
| CC(C)c1ccc([C@@H](NC(=O)[C@@H]2C[C@@H](F)CN2C(=O)Cc2nn[nH]n2)c2ccccc2)cc1 (stereo in doubt) [Compound 223, (2RS,4R)-4-fluoro-N-[(S)-phenyl[4-(propan-2-yl)phenyl]methyl]-1-[2-(2H-1,2,3,4-tetrazol-5-yl)acetyl]pyrrolidine-2-carboxamide] | 62 nM | > 100000 nM |
| CC(C)c1ccc([C@@H](NC(=O)[C@@H]2C[C@@H](F)CN2C(=O)Cc2nnco2)c2ccccc2)cc1 (stereo in doubt) [Compound 224, (2RS,4R)-4-fluoro-1-[2-(1,3,4-oxadiazol-2-yl)acetyl]-N-[(S)-phenyl[4-(propan-2-yl)phenyl]methyl]pyrrolidine-2-carboxamide] | 70 nM | > 100000 nM |
| CC(C)c1ccc([C@@H](NC(=O)[C@@H]2C[C@@H](F)CN2C(=O)Cc2cnnn2C)c2ccccc2)cc1 (stereo in doubt) [Compound 228, (2RS,4R)-4-fluoro-1-[2-(1-methyl-1H-1,2,3-triazol-5-yl)acetyl]-N-[(S)-phenyl[4-(propan-2-yl)phenyl]methyl]pyrrolidine-2-carboxamide] | 77 nM | > 100000 nM |
| CC(C)c1ccc([C@@H](NC(=O)[C@@H]2C[C@@H](F)CN2C(=O)Cc2cn(C)nn2)c2ccccc2)cc1 (stereo in doubt) [Compound 229, (2RS,4R)-4-fluoro-1-[2-(1-methyl-1H-1,2,3-triazol-4-yl)acetyl]-N-[(S)-phenyl[4-(propan-2-yl)phenyl]methyl]pyrrolidine-2-carboxamide] | 25 nM | > 100000 nM |
| CC(=O)N1C[C@H]2COC[C@@]2(C(=O)N2C[C@H](F)C[C@H]2C(=O)N[C@@H](c2ccccc2)c2ccc(C(C)C)cc2)C1 [Compound 3, (2S,4R)-1-[(3aS,6aS)-5-acetyl-hexahydro-1H-furo[3,4-c]pyrrole-3a-carbonyl]-4-fluoro-N-[(S)-phenyl[4-(propan-2-yl)phenyl]methyl]pyrrolidine-2-carboxamide] | 168 nM | > 100000 nM |
| CC(=O)N1CC2(CCCC2CC(=O)N2C[C@H](F)C[C@H]2C(=O)N[C@@H](c2ccccc2)c2ccc(C(C)C)cc2)C1 (stereo partly drawn) [Compound 7, (2S,4R)-1-(2-{2-acetyl-2-azaspiro[3.4]octan-5-yl}acetyl)-4-fluoro-N-[(S)-phenyl[4-(propan-2-yl)phenyl]methyl]pyrrolidine-2-carboxamide] | 113 nM | > 100000 nM |
| CC(C)c1ccc([C@@H](NC(=O)[C@@H]2C[C@@H](F)CN2C(=O)[C@@H]2CNC(=O)O2)c2ccccc2)cc1 [Compound 8, (2S,4R)-4-fluoro-1-[(5S)-2-oxo-1,3-oxazolidine-5-carbonyl]-N-[(S)-phenyl[4-(propan-2-yl)phenyl]methyl]pyrrolidine-2-carboxamide] | 42 nM | > 100000 nM |
| CC(C)c1ccc([C@@H](NC(=O)[C@@H]2C[C@@H](F)CN2C(=O)Cn2cnnn2)c2ccccc2)cc1 [Compound 9, (2S,4R)-4-fluoro-N-[(S)-phenyl[4-(propan-2-yl)phenyl]methyl]-1-[2-(1H-1,2,3-tetrazol-1-yl)acetyl]pyrrolidine-2-carboxamide] | 59 nM | > 100000 nM |
| Cc1nnc(CC(=O)N2C[C@H](F)C[C@H]2C(=O)N[C@@H](c2ccccc2)c2ccc(C(C)C)cc2)o1 [Compound 10, (2S,4R)-4-fluoro-1-[2-(5-methyl-1,3,4-oxadiazol-2-yl)acetyl]-N-[(S)-phenyl[4-(propan-2-yl)phenyl]methyl]pyrrolidine-2-carboxamide] | 50 nM | > 100000 nM |
| CC(C)c1ccc([C@@H](NC(=O)[C@@H]2C[C@@H](F)CN2C(=O)CCn2ccnn2)c2ccccc2)cc1 [Compound 11, (2S,4R)-4-fluoro-N-[(S)-phenyl[4-(propan-2-yl)phenyl]methyl]-1-[3-(1H-1,2,3-triazol-1-yl)propanoyl]pyrrolidine-2-carboxamide] | 91 nM | > 100000 nM |
| CC(C)c1ccc([C@@H](NC(=O)[C@@H]2C[C@@H](F)CN2C(=O)CCC#N)c2ccccc2)cc1 [Compound 13, (2S,4R)-1-(3-cyanopropanoyl)-4-fluoro-N-[(S)-phenyl[4-(propan-2-yl)phenyl]methyl]pyrrolidine-2-carboxamide] | 147 nM | > 100000 nM |
| CC(C)c1ccc([C@@H](NC(=O)[C@@H]2C[C@@H](F)CN2C(=O)CS(C)(=O)=O)c2ccccc2)cc1 [Compound 14, (2S,4R)-4-fluoro-1-(2-methanesulfonylacetyl)-N-[(S)-phenyl[4-(propan-2-yl)phenyl]methyl]pyrrolidine-2-carboxamide] | 129 nM | > 100000 nM |
| CC(C)c1ccc([C@@H](NC(=O)[C@@H]2C[C@@H](F)CN2C(=O)Cc2cscn2)c2ccccc2)cc1 [Compound 15, (2S,4R)-4-fluoro-N-[(S)-phenyl[4-(propan-2-yl)phenyl]methyl]-1-[2-(1,3-thiazol-4-yl)acetyl]pyrrolidine-2-carboxamide] | 48 nM | > 100000 nM |
| CC(C)c1ccc([C@@H](NC(=O)[C@@H]2C[C@@H](F)CN2C(=O)Cn2cncn2)c2ccccc2)cc1 [Compound 16, (2S,4R)-4-fluoro-N-[(S)-phenyl[4-(propan-2-yl)phenyl]methyl]-1-[2-(1H-1,2,4-triazol-1-yl)acetyl]pyrrolidine-2-carboxamide] | 33 nM | > 100000 nM |
| CC(C)c1ccc([C@@H](NC(=O)[C@@H]2C[C@@H](F)CN2C(=O)Cc2c[nH]cn2)c2ccccc2)cc1 [Compound 18, (2S,4R)-4-fluoro-1-[2-(1H-imidazol-4-yl)acetyl]-N-[(S)-phenyl[4-(propan-2-yl)phenyl]methyl]pyrrolidine-2-carboxamide] | 45 nM | > 100000 nM |
| CC(C)c1ccc([C@@H](NC(=O)[C@@H]2C[C@@H](F)CN2C(=O)Cn2ccnc2)c2ccccc2)cc1 [Compound 23, (2S,4R)-4-fluoro-1-[2-(1H-imidazol-1-yl)acetyl]-N-[(S)-phenyl[4-(propan-2-yl)phenyl]methyl]pyrrolidine-2-carboxamide] | 70 nM | > 100000 nM |
| CC(C)c1ccc([C@@H](NC(=O)[C@@H]2C[C@@H](F)CN2C(=O)C(C)n2cnnn2)c2ccccc2)cc1 (stereo partly drawn) [Compound 24, (2S,4R)-4-fluoro-N-[(S)-phenyl[4-(propan-2-yl)phenyl]methyl]-1-[2-(1H-1,2,3,4-tetrazol-1-yl)propanoyl]pyrrolidine-2-carboxamide] | 50 nM | > 100000 nM |
| CC(C)c1ccc([C@@H](NC(=O)[C@@H]2C[C@@H](F)CN2C(=O)C2(C)COC2)c2ccccc2)cc1 [Compound 25, (2S,4R)-4-fluoro-1-(3-methyloxetane-3-carbonyl)-N-[(S)-phenyl[4-(propan-2-yl)phenyl]methyl]pyrrolidine-2-carboxamide] | 235 nM | > 100000 nM |
| CC(C)c1ccc([C@@H](NC(=O)[C@@H]2C[C@@H](F)CN2C(=O)Cc2cnccn2)c2ccccc2)cc1 [Compound 26, (2S,4R)-4-fluoro-N-[(S)-phenyl[4-(propan-2-yl)phenyl]methyl]-1-[2-(pyrazin-2-yl)acetyl]pyrrolidine-2-carboxamide] | 36 nM | > 100000 nM |

From patent publication US11814367B2, “Inhibitors of glycogen synthase 1 (GYS1) and methods of use thereof” (Maze Therapeutics, Inc., priority 2021, dated 2023)
